Source: PubChem BioAssay (NCI)
Values joined by “and” are separate entries in the source; they are usually repeats but may differ in a detail not shown here. Equal entries are not always repeated.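 A five-concentration, 48-hour dose response in 96-well plates underlies each endpoint, interpolated linearly between surrounding concentrations. GI50 is the concentration that inhibits growth by half. TGI: concentration producing complete growth inhibition.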

Legend:
Test in all cases: DTP human tumour cell line panel, 48 h
[1] = test system: CAKI-1 renal
[2] = test system: NCI-H460 lung
[3] = test system: TK-10 renal
[4] = test system: NCI-H522 lung
[5] = test system: DU-145 prostate
[6] = test system: HCT-116 colon
[7] = test system: M14 melanoma
[8] = test system: UACC-257 melanoma
[9] = test system: SNB-19 CNS
[10] = test system: U251 CNS

SMILES	GI50 [1]	TGI [1]	GI50 [2]	TGI [2]	GI50 [3] [µM]	TGI [3] [µM]	GI50 [4]	TGI [4]	GI50 [5] [µM]	TGI [5] [µM]	GI50 [6]	TGI [6] [µM]	GI50 [7]	TGI [7]	GI50 [8]	TGI [8]	GI50 [9]	TGI [9]	GI50 [10]	TGI [10]
C=CCCCc1ccc(C(O)CCCCCCCCCCCC)o1 (stereo not drawn)	17.4 µM	33.2 µM	22 µM	60.7 µM	21	38.3	15.3 µM	29.7 µM	19	35.4	15.5 µM	28.9	18.9 µM	38.9 µM	21.8 µM	48.2 µM	17.7 µM	32.8 µM	15.5 µM	29.1 µM
Cc1cccc2c(N)c3ccccc3nc12	0.966 µM	11.6 µM	0.523 µM	10.5 µM	1.78	8.27	1.45 µM	4.12 µM	1.53	12.3	0.454 µM	11.2	1.87 µM	5.19 µM	1.87 µM	3.63 µM	2.06 µM	16.7 µM	2.19 µM	7.84 µM
[Cl][Cd][Cl]	17.7 µM and 10.9 µM	34.8 µM and 22.2 µM	1.44 µM and 4.53 µM and 1.16 µM	17.6 µM and 24.9 µM	90.5	192	0.32 µM and 1.39 µM and 0.349 µM	3.65 µM and 1.55 µM	24	63.6	40.3 µM and 48.3 µM	117	43.4 µM and 62.3 µM	> 76.9 µM and 161 µM	22 µM and 27 µM	56.2 µM and 74.9 µM	> 44.1 µM and 49.9 µM	> 61 µM and 146 µM	14.7 µM and 13.6 µM	20.3 µM and 40.1 µM
Oc1ccc(Cl)cc1CNc1nc2ccccc2[nH]1	11.4 µM	28.1 µM	12.5 µM	26.3 µM	15.7	31.2	11.9 µM	27.7 µM	16.2	32.4	12.1 µM	24.7			14.7 µM	29.4 µM	14.4 µM	40.3 µM	11.7 µM	24.5 µM
CCCNc1nc2ccccc2c2c1S(=O)(=O)c1ccc(Cl)cc1C2=O	1.46 µM	> 50 µM	1.3 µM	4.47 µM	3.14	> 50	1.17 µM	> 50 µM	1.57	> 50	0.425 µM	> 50	0.625 µM	> 50 µM	2.15 µM	> 50 µM	1.4 µM	> 50 µM	1.6 µM	> 50 µM
CSc1cccc(NC(=O)OC2CCCCCCCCCCC2)c1		61 µM		35.2 µM		75.1		37.1 µM		> 100		38.9		59.5 µM		38.7 µM		> 100 µM		41 µM
COC1=C2CC(C)CC(OC)C(O)C(C)/C=C(\C)C(OC(N)=O)C(OC)/C=C\C=C(/C)C(=O)NC(=C(/C=N/N3CCCCC3)C1=O)C2=O (stereo not drawn)		37 µM		57.1 µM		72.1		7.87 µM		32.9		9.48		37.4 µM		27.7 µM		41.9 µM		20.8 µM
